Source: patent US20260013504A1, “HERBICIDAL MIXTURE, HERBICIDAL COMPOSITION, METHOD, USE, AND KITS FOR CONTROLLING UNDESIRABLE VEGETATION” (ADAMA AGAN LTD., priority 2022, published 2026)

Assays:
Assay type in all cases: in vivo
Aegilops tauschii = experiment: Pot experiment, soil treatment, control of Aegilops tauschii (fresh weight, Colby); conditions: mixtures: both AIs at these rates, after 35 days
From the text: (§1) Referring to an article of Colby, S. R. i.e., Calculation of the synergistic and antagonistic response of herbicide combinations.
E0 is the theoretical fresh weight survival rate for the mixture of pyroxasulfone and the second herbicide selected from the group consisting of fluorochloridone, aclonifen, diflufenican and terbutryn;
X is the measured fresh weight survival rate for pyroxasulfone used alone at the same dosage as that in the mixture;
Y is the measured fresh weight survival rate for the second herbicide selected from the group consisting of fluorochloridone, aclonifen, diflufenican and terbutryn used alone at the same dosage as that in the mixture;
E is the measured fresh weight survival rate for the mixture of pyroxasulfone and the second herbicide selected from the group consisting of fluorochloridone, aclonifen, diflufenican and terbutryn.
(§2) E0-E value is calculated to evaluate the combined effect of pyroxasulfone and the second herbicide selected from the group consisting of fluorochloridone, aclonifen, diflufenican and terbutryn on the selected weeds.
(§3) In this Example, the herbicidal activity of treatments by a mixture of pyroxasulfone and the second herbicide selected from the group consisting of fluorochloridone, aclonifen, diflufenican and terbutryn for controlling Aegilops tauschii was investigated by a pot experiment. This Example was carried out in accordance with “NY/T 1155.4-2006 Guidelines for Indoor Bioassay Tests of Pesticides, Herbicides Part 4: Activity Determination Tests, Stem and Leaf Spray Method”. • Source of the agrochemicals tested were: • Pyroxasulfone: pyroxasulfone (850g/Kg, WG) from Adama Agan LTD. • Fluorochloridone: fluorochloridone (250 g/L, EC) from Adama Agan LTD. • Aclonifen: aclonifen (600 g/L, SC) from Adama Agan LTD. • Diflufenican: diflufenican (50g/Kg, WP) from Bayer. • Terbutryn: terbutryn (50g/Kg, SC) from Zhejiang Zhongshan Chemical Industry Group Co., Ltd. • Cultivation of test materials: The test soil was formed by mixing the 20 cm layer loam on the ground surface and the culture medium in a ratio of 3:1 as cultivation soil. Weeds were cultivated in an artificial climate chamber. The daytime and nighttime temperatures were set at 22° C. and 19° C., respectively, and the illumination was set at daytime: dark time 12h: 12h.
(§4) A certain amount of Aegilops tauschii seeds were sown in a plastic pot with a diameter of 9 cm, covering with 1-2 mm soil, and putting them in an enamel dish filled with water. The bottom infiltration method was used to water them, the agrochemicals tested in this Example were applied on the second day after sowing Aegilops tauschii seeds.
(§5) Spraying treatment: ASS-4 automatic control spraying system with a fan-shaped nozzle was used indoors to spray the agrochemicals, the running speed was adjusted based on nozzle pressure, flow rate, etc. to spray 50 mL of liquid of agrochemicals on the actual spray area of 1.1 m2 (equivalent to 30 liters per mu), arranging the plastic pots to be processed on the spraying table evenly, and spraying evenly. The spraying pressure was 0.35 MPa, and the flow rate of the fan-shaped nozzle was 800 mL/min, spraying in order from low dosage to high dosage. Each treatment was repeated 3 times. After spraying, the plastic pots were dried for one day, placed in an artificial climate chamber, and watered regularly to keep moist.
(§6) Weed investigation method and time: after applying the agrochemicals, the symptoms of weed damage (such as growth inhibition, chlorosis, deformity, etc.) were recorded in detail. After 35 days, the fresh weight of aerial part of the weeds in each treatment was weighed, and the measured fresh weight inhibition rate and the measured fresh weight survival rate for each treatment were calculated according to the following equations: […]

Lolium multiflorum Lamk = experiment: Pot experiment, soil treatment, control of Lolium multiflorum Lamk (fresh weight, Colby); conditions: mixtures: both AIs at these rates, after 35 days
Method: as §1, §2, §3, §4, §5, §6
Example 2 was conducted in substantially the same way as Example 1, except that Lolium multiflorum Lamk was used instead of Aegilops tauschii.

Bromus japonicus = experiment: Pot experiment, soil treatment, control of Bromus japonicus (fresh weight, Colby); conditions: mixtures: both AIs at these rates, after 35 days
Method: as §1, §2, §3, §4, §5, §6
Example 3 was conducted in substantially the same way as Example 1, except that Bromus japonicus was used instead of Aegilops tauschii.

Galium aparine = experiment: Pot experiment, soil treatment, control of Galium aparine (fresh weight, Colby)
Method: as §1, §2, §3, §4, §5, §6
Example 4 was conducted substantially the same way as Example 1, except that Galium aparine was used instead of Aegilops tauschii.

Lithospermum arvense = experiment: Pot experiment, soil treatment, control of Lithospermum arvense (fresh weight, Colby)
Method: as §1, §2, §3, §4, §5, §6
Example 5 was conducted substantially the same way as Example 1, except that Lithospermum arvense was used instead of Aegilops tauschii.

Solanum nigrum = experiment: Pot experiment (glass greenhouse), soil treatment, control of Solanum nigrum (fresh weight, Colby)
Method: as §1, §2, §3, §4, §5, §6
Example 6 was substantially conducted in the same as Example 1, except that (1) Solanum nigrum was used instead of Aegilops tauschii, (2) in “Cultivation of test materials” part, Solanum nigrum was cultivated in a glass greenhouse instead of an artificial climate chamber at a temperature of 25 to 33° C. with a natural illumination, and (3) in “Spraying treatment” part, after spraying and drying, the plastic pots were placed in a glass greenhouse instead of an artificial climate chamber.

[1] = g ai/ha: pyroxasulfone 11.25, fluorochloridone 31.25, aclonifen 150, diflufenican 14.0625, terbutryn 140.625
[2] = g ai/ha: pyroxasulfone 22.5, fluorochloridone 62.5, aclonifen 300, diflufenican 28.125, terbutryn 281.25
[3] = g ai/ha: pyroxasulfone 45, fluorochloridone 125, aclonifen 600, diflufenican 56.25, terbutryn 562.5
[4] = g ai/ha: pyroxasulfone 90, fluorochloridone 250, aclonifen 1200, diflufenican 112.5, terbutryn 1125
[5] = g ai/ha: pyroxasulfone 180, fluorochloridone 500, aclonifen 2400, diflufenican 225, terbutryn 2250
[6] = g ai/ha: pyroxasulfone 360, fluorochloridone 1000, aclonifen 4800, diflufenican 450, terbutryn 4500

## Cn1nc(C(F)(F)F)c(CS(=O)(=O)C2=NOC(C)(C)C2)c1OC(F)F [pyroxasulfone, 3-[(5-difluoromethoxy-1-methyl-3-trifluoromethylpyrazol-4-yl)methylsulfonyl]-4,5-dihydro-5,5-di methyl-1,2-isoxazole]
Aegilops tauschii; [1]
  Measured fresh weight inhibition rate (%): 4.9%
  Measured fresh weight survival rate (%) - E: 95.1%
Aegilops tauschii; [2]
  Measured fresh weight inhibition rate (%): 11.6%
  Measured fresh weight survival rate (%) - E: 88.4%
Aegilops tauschii; [3]
  Measured fresh weight inhibition rate (%): 47.6%
  Measured fresh weight survival rate (%) - E: 52.4%
Aegilops tauschii; [4]
  Measured fresh weight inhibition rate (%): 50.0%
  Measured fresh weight survival rate (%) - E: 50.0%
Aegilops tauschii; [5]
  Measured fresh weight inhibition rate (%): 78.7%
  Measured fresh weight survival rate (%) - E: 21.3%
Aegilops tauschii; [6]
  Measured fresh weight inhibition rate (%): 97.6%
  Measured fresh weight survival rate (%) - E: 2.4%
Lolium multiflorum Lamk; [1]
  Measured fresh weight inhibition rate (%): 68.2%
  Measured fresh weight survival rate (%) - E: 31.8%
Lolium multiflorum Lamk; [2]
  Measured fresh weight inhibition rate (%): 94.8%
  Measured fresh weight survival rate (%) - E: 5.2%
Lolium multiflorum Lamk; [3]
  Measured fresh weight inhibition rate (%): 100.0%
  Measured fresh weight survival rate (%) - E: 0.0%
Lolium multiflorum Lamk; [4]
  Measured fresh weight inhibition rate (%): 100.0%
  Measured fresh weight survival rate (%) - E: 0.0%
Lolium multiflorum Lamk; [5]
  Measured fresh weight inhibition rate (%): 100.0%
  Measured fresh weight survival rate (%) - E: 0.0%
Lolium multiflorum Lamk; [6]
  Measured fresh weight inhibition rate (%): 100.0%
  Measured fresh weight survival rate (%) - E: 0.0%
Bromus japonicus; [1]
  Measured fresh weight inhibition rate (%): 74.2%
  Measured fresh weight survival rate (%) - E: 25.8%
Bromus japonicus; [2]
  Measured fresh weight inhibition rate (%): 88.7%
  Measured fresh weight survival rate (%) - E: 11.3%
Bromus japonicus; [3]
  Measured fresh weight inhibition rate (%): 100.0%
  Measured fresh weight survival rate (%) - E: 0.0%
Bromus japonicus; [4]
  Measured fresh weight inhibition rate (%): 100.0%
  Measured fresh weight survival rate (%) - E: 0.0%
Bromus japonicus; [5]
  Measured fresh weight inhibition rate (%): 100.0%
  Measured fresh weight survival rate (%) - E: 0.0%
Galium aparine; 11.25 g ai/ha
  Measured fresh weight survival rate (%) - E: 67.1%
Galium aparine; 22.5 g ai/ha
  Measured fresh weight survival rate (%) - E: 21.9%
Galium aparine; 45 g ai/ha
  Measured fresh weight survival rate (%) - E: 4.1%
Galium aparine; 90 g ai/ha
  Measured fresh weight survival rate (%) - E: 4.1%
Galium aparine; 180 g ai/ha
  Measured fresh weight survival rate (%) - E: 0.0%
Galium aparine; Galium aparine, soil, 11.25 g ai/ha, read-out: Measured fresh weight inhibition rate (%)
  inhibition at 11.25 g/ha: 32.9%
Galium aparine; Galium aparine, soil, 22.5 g ai/ha, read-out: Measured fresh weight inhibition rate (%)
  inhibition at 22.5 g/ha: 78.1%
Galium aparine; Galium aparine, soil, 45 g ai/ha, read-out: Measured fresh weight inhibition rate (%)
  inhibition at 45 g/ha: 95.9%
Galium aparine; Galium aparine, soil, 90 g ai/ha, read-out: Measured fresh weight inhibition rate (%)
  inhibition at 90 g/ha: 95.9%
Galium aparine; Galium aparine, soil, 180 g ai/ha, read-out: Measured fresh weight inhibition rate (%)
  inhibition at 180 g/ha: 100%
Lithospermum arvense; 11.25 g ai/ha
  Measured fresh weight survival rate (%) - E: 63.8%
Lithospermum arvense; 22.5 g ai/ha
  Measured fresh weight survival rate (%) - E: 55.1%
Lithospermum arvense; 45 g ai/ha
  Measured fresh weight survival rate (%) - E: 27.5%
Lithospermum arvense; 90 g ai/ha
  Measured fresh weight survival rate (%) - E: 21.7%
Lithospermum arvense; 180 g ai/ha
  Measured fresh weight survival rate (%) - E: 10.1%
Lithospermum arvense; Buglossoides arvensis, soil, 11.25 g ai/ha, read-out: Measured fresh weight inhibition rate (%)
  inhibition at 11.25 g/ha: 36.2%
Lithospermum arvense; Buglossoides arvensis, soil, 22.5 g ai/ha, read-out: Measured fresh weight inhibition rate (%)
  inhibition at 22.5 g/ha: 44.9%
Lithospermum arvense; Buglossoides arvensis, soil, 45 g ai/ha, read-out: Measured fresh weight inhibition rate (%)
  inhibition at 45 g/ha: 72.5%
Lithospermum arvense; Buglossoides arvensis, soil, 90 g ai/ha, read-out: Measured fresh weight inhibition rate (%)
  inhibition at 90 g/ha: 78.3%
Lithospermum arvense; Buglossoides arvensis, soil, 180 g ai/ha, read-out: Measured fresh weight inhibition rate (%)
  inhibition at 180 g/ha: 89.9%
Solanum nigrum; 11.25 g ai/ha
  Measured fresh weight survival rate (%) - E: 82.4%
Solanum nigrum; 22.5 g ai/ha
  Measured fresh weight survival rate (%) - E: 68.2%
Solanum nigrum; 45 g ai/ha
  Measured fresh weight survival rate (%) - E: 38.4%
Solanum nigrum; 90 g ai/ha
  Measured fresh weight survival rate (%) - E: 8.2%
Solanum nigrum; 180 g ai/ha
  Measured fresh weight survival rate (%) - E: 4.7%
Solanum nigrum; Solanum nigrum, soil, read-out: Measured fresh weight inhibition rate (%)
  inhibition at 22.5 g/ha: 31.8%
Solanum nigrum; Solanum nigrum, soil, 11.25 g ai/ha, read-out: Measured fresh weight inhibition rate (%)
  inhibition at 11.25 g/ha: 17.6%
Solanum nigrum; Solanum nigrum, soil, 45 g ai/ha, read-out: Measured fresh weight inhibition rate (%)
  inhibition at 45 g/ha: 61.6%
Solanum nigrum; Solanum nigrum, soil, 90 g ai/ha, read-out: Measured fresh weight inhibition rate (%)
  inhibition at 90 g/ha: 91.8%
Solanum nigrum; Solanum nigrum, soil, 180 g ai/ha, read-out: Measured fresh weight inhibition rate (%)
  inhibition at 180 g/ha: 95.3%
